Measured values as given in patent US20210161825A1, “CHLOROQUINE-BASED MATERIALS FOR THE TREATMENT OF DISEASES” (BOARD OF REGENTS OF THE UNIVERSITY OF NEBRASKA, priority 2018, published 2021).

How the values were obtained:
[1] = Blood pharmacokinetics after single oral dose in C. rodentium colitis mice; format: in vivo, mouse; conditions: for Cmax: pCQ = total (polymer-bound + hydrolyzed) HCQ
Protocol: (§1) Male C57BL/6 mice (6 weeks old, 18-20 g) were obtained from Charles River Laboratories and used for all in vivo studies. All animal experiments were conducted according to the protocol approved by the University of Nebraska Medical Center Institutional Animal Care and Use Committee. C. rodentium was used to induce colitis in mice. Bacterial glycerol stock was streaked onto LB agar plates and the bacterial colonies were grown overnight at 37° C. A single colony was inoculated into 5 ml of 2% LB broth and incubated at 37° C., 280 rpm overnight to obtain a saturated primary culture. On the day of the experiment (Day 0), 2 ml of the primary culture was added into 300 ml of LB broth and the inoculum was placed on a shaker at 37° C. at 280 rpm for 6 hours. Bacterial optical density was measured at 600 nm. Bacteria were diluted with LB broth and delivered to mice (n=15) via oral gavage in a 100 μL volume containing 5×10^8 colony forming units (CFU). Healthy control group (n=5) was orally administered 100 μL of LB broth.
(§2) The pharmacokinetics and biodistribution of single dose pCQ was evaluated in a mouse model of IBD. Colitis was induced as described above and on day 14, mice were given a single dose of HCQ or pCQ in 200 μl of deionized water via oral gavage equivalent to 30 mg/kg HCQ. Blood was collected from the submandibular vein at 0.5, 1, 2, 4, 8, and 24 h post-administration. The animals were sacrificed, and organs harvested at 0.5, 2, 8, and 24 h post-administration and stored at −80° C. until further use. The mice were randomized to selected sampling times so that three blood samples and one terminal tissue collection were obtained from each.
Blood, tissue and fecal samples were processed by two methods to determine free HCQ and total HCQ. For the first method, HCQ was isolated by a simple extraction from the organs as described in Murry et al., J. Chrom. B., (2018) 1072, 320-327. The second method utilized base hydrolysis to release HCQ covalently bound to pCQ and subsequent HCQ extraction using solid phase extraction (SPE). Tissues and feces were homogenized in water prior to loading to the SPE cartridge. The calibration and quality control samples were separately prepared for HCQ and pCQ by spiking 10 μl of appropriate calibration stock of HCQ and pCQ, in 100 μl of blank biomatrix, and 10 μl of internal standard solution (1.0 μg/ml) added. For the study, 25 μl of blood and 100 μl of tissue homogenate were used. 400 μl of 1 M NaOH, 600 μl water and 100 μl methanol were added and the samples were incubated at 50° C. for 1 h to hydrolyze HCQ from the pCQ. Subsequently, 400 μ12% formic acid was added and the samples were vortexed for 30 s and centrifuged at 1301×g for 10 min. The SPE was carried out using Oasis HLB 3cc, 60 mg extraction Cartridge (Waters, Inc). Cartridges were pre-conditioned with 1 ml acetonitrile followed by 1 ml water. Samples were loaded to the cartridges and washed with 2 ml of aqueous 15% methanol and dried at high vacuum for 15 min. Analytes were eluted with 2 ml of acetonitrile. The eluents were collected in glass tubes and dried under nitrogen in water bath at 50° C. The dry residues were reconstituted in 400 μ1 0.1% formic acid:methanol mixture (60:40) and centrifuged at 13000×g and 10 μl supernatant was injected into the HPLC. The LC-MS/MS conditions were as previously described. (Murry et al., J. Chrom. B., (2018) 1072, 320-327.) The assay was linear over the range of 1 to 2000 ng/mL.
The pharmacokinetic parameters of HCQ and pCQ in blood and tissues were calculated using non-compartmental analysis with Phoenix WinNonlin 6.3 (Pharsight Corporation). The maximum concentration (Cmax) and time to Cmax (Tmax) were obtained from the visual inspection of the concentration-time plot. […]

[2] = Liver pharmacokinetics and distribution after single oral dose in colitis mice; format: in vivo; conditions: male, C57BL/6, mouse, single oral dose 30 mg/kg CQ equivalent, pCQ = total HCQ
Protocol: as §1, §2
(§3) Blood, tissue and fecal samples were processed by two methods to determine free HCQ and total HCQ. For the first method, HCQ was isolated by a simple extraction from the organs as described in Murry et al., J. Chrom. B., (2018) 1072, 320-327. The second method utilized base hydrolysis to release HCQ covalently bound to pCQ and subsequent HCQ extraction using solid phase extraction (SPE). Tissues and feces were homogenized in water prior to loading to the SPE cartridge. The calibration and quality control samples were separately prepared for HCQ and pCQ by spiking 10 μl of appropriate calibration stock of HCQ and pCQ, in 100 μl of blank biomatrix, and 10 μl of internal standard solution (1.0 μg/ml) added. For the study, 25 μl of blood and 100 μl of tissue homogenate were used. 400 μl of 1 M NaOH, 600 μl water and 100 μl methanol were added and the samples were incubated at 50° C. for 1 h to hydrolyze HCQ from the pCQ. […]
(§4) The pharmacokinetic parameters of HCQ and pCQ in blood and tissues were calculated using non-compartmental analysis with Phoenix WinNonlin 6.3 (Pharsight Corporation). […]

[3] = Colon pharmacokinetics and distribution after single oral dose in colitis mice; format: in vivo; conditions: male, C57BL/6, mouse, single oral dose 30 mg/kg CQ equivalent, pCQ = total HCQ
Protocol: as §1, §2, §3, §4

[4] = system: mice with C. rodentium colitis; assay: Therapeutic efficacy, colon histology (H&E) in C. rodentium colitis; format: in vivo, mouse; conditions: oral gavage every other day, 30 mg/kg HCQ equivalent, vs untreated
Protocol: Male C57BL/6 mice (6 weeks old, 18-20 g) were obtained from Charles River Laboratories and used for all in vivo studies. All animal experiments were conducted according to the protocol approved by the University of Nebraska Medical Center Institutional Animal Care and Use Committee. C. rodentium was used to induce colitis in mice. Bacterial glycerol stock was streaked onto LB agar plates and the bacterial colonies were grown overnight at 37° C. A single colony was inoculated into 5 ml of 2% LB broth and incubated at 37° C., 280 rpm overnight to obtain a saturated primary culture. […] Bacterial optical density was measured at 600 nm. […]
The longitudinally opened colons were rolled into a Swiss roll from distal to proximal end. […] The stained sections were evaluated by a pathologist without the knowledge of the identity of the samples using a light microscope. […] Crypt heights were measured using ImageJ software, with 10 measurements taken in distal colons of each mouse. Only well-oriented and intact crypts were measured. […] CC3 positive cells in the entire colon roll were counted at 20× magnification. Results were expressed as mean CC3 positive cells per entire colon roll. CD68 positive cells were counted in five randomly chosen areas in the colon roll at high power field (HPF). Results were expressed as mean of CD68 positive cells per HPF.

CD68 positive cells = assay: Macrophage infiltration in the colon (CD68 staining); format: in vivo, mouse; conditions: oral gavage every other day, 30 mg/kg HCQ equivalent, day 14; vs untreated
Protocol: (§5) Colitis was induced as stated above and mice were randomly assigned to healthy, HCQ, and pCQ treatment groups (n=5) and untreated group (n=8). Starting day 1, the mice received oral gavage of either HCQ or pCQ every other day (30 mg/kg HCQ equivalent in 200 μl sterile deionized water). Untreated and healthy controls were administered 200 μl sterile deionized water. On day 14, the mice were sacrificed and the colons were harvested. The colon was opened longitudinally, cleaned of fecal matter, and excised into two parts along the length, which were stored accordingly for determination of cytokine mRNA levels by RT-PCR and histological analysis.

IL-6 = assay: Colon cytokine mRNA by RT-PCR, IL-6; format: in vivo, mouse; conditions: seven oral doses over 14 days; vs untreated
Protocol: as §5
(§6) Colon samples from the therapeutic study were stored in RNAlater™ (Thermo Fisher Scientific Inc.) at 4° C. for 48 hours to allow sufficient time for tissue penetration followed by removal of excess solution. The tissues were then stored at −80° C. until further processing. […] The extracted mRNA was quantified using Nanodrop Onec UV-Vis spectrophotometer (Thermo Fisher Scientific Inc.). […] A volume corresponding to 1 μg of RNA as determined by UV spectrometer was used for cDNA synthesis. […] Results obtained from the RT-PCR were analyzed by Ct method to determine the fold change in gene expression.

IL-2 = assay: Colon cytokine mRNA by RT-PCR, IL-2; format: in vivo, mouse; conditions: seven oral doses over 14 days; vs untreated
Protocol: as §5, §6

[5] = male, C57BL/6, mouse, whole blood, blood, single oral dose 30 mg/kg HCQ equivalent, colitis mice, pCQ = total HCQ

CCN(CCO)CCCC(C)Nc1ccnc2cc(Cl)ccc12 (centres unmarked) [HCQ, Hydroxychloroquine]
Cmax ([1]; blood, single oral dose 30 mg/kg HCQ equivalent, colitis mice, 30 mg/kg): 2,343 ± 46 ng/ml | AUC0-∞ ([1]; blood, single oral dose 30 mg/kg HCQ equivalent, colitis mice, pCQ = total HCQ, 30 mg/kg): 28,182 ± 1476^ h × ng/ml | bioavailability ([1]; male, C57BL/6, mouse, whole blood, 30 mg/kg, oral vs i.v., read-out: absolute bioavailability (oral to i.v.)): 80% | Cmax ([1]; male, C57BL/6, mouse, whole blood, po, 30 mg/kg, blood, single oral dose 30 mg/kg HCQ equivalent, colitis mice, read-out: Cmax): 2340 ng/mL | AUC(0-inf) ([1]; male, C57BL/6, mouse, whole blood, po, 30 mg/kg, blood, single oral dose 30 mg/kg HCQ equivalent, colitis mice, pCQ = total HCQ): 28.2 µg·h/mL | AUC(0-t) [1, 5]: 26.4 µg·h/mL | CL/F [1, 5]: 18.3 mL/min/kg | MRT [1, 5]: 6.8 ± 0.6 h | Tmax [1, 5]: 3.3 ± 1.2 h | half-life [1, 5]: 5.6 ± 1.9 h | AUC(0-inf) [2]: 176 µg·h/mL | AUC(0-t) [2]: 168 µg·h/mL | Cmax [2]: 12800 ng/mL | Tmax [2]: 2 h | AUC(0-inf) [3]: 209 µg·h/mL | AUC(0-t) [3]: 166 µg·h/mL | Cmax [3]: 10300 ng/mL | Tmax [3]: 8 h | colon crypt length ([4]; day 14): significantly reduced | colon inflammation and epithelial injury (H&E) ([4]; sacrifice day 14): reduced the colon inflammation and eased the epithelial injury | macrophage infiltration (CD68 positive cells per HPF) (CD68 positive cells): statistically significant reduction | colon IL-6 expression (mRNA) (IL-6): statistically significant reduction | colon IL-2 expression (mRNA) (IL-2): upregulated
